Test results taken from PubChem BioAssay AID493145 (Sanford-Burnham Center for Chemical Genomics, 2011).
Values joined by “and” are separate entries in the source; they are usually repeats but may differ in a detail not shown here. Identical values can stand only once. Active and inactive are the calls of the source. How the calls were made is not given here.

Molecular target: Intestinal-type alkaline phosphatase (Homo sapiens) (UniProt P09923)
Test: activation of human intestinal phosphatase enzyme – biochemical, human enzyme for mouse series, mouse IAP activator project, SAR follow-up (AID 493145)
Conditions: purified human intestinal alkaline phosphatase, enzymatic activity

Chain of Intestinal-type alkaline phosphatase (Homo sapiens) (P09923 whole entry, looked up): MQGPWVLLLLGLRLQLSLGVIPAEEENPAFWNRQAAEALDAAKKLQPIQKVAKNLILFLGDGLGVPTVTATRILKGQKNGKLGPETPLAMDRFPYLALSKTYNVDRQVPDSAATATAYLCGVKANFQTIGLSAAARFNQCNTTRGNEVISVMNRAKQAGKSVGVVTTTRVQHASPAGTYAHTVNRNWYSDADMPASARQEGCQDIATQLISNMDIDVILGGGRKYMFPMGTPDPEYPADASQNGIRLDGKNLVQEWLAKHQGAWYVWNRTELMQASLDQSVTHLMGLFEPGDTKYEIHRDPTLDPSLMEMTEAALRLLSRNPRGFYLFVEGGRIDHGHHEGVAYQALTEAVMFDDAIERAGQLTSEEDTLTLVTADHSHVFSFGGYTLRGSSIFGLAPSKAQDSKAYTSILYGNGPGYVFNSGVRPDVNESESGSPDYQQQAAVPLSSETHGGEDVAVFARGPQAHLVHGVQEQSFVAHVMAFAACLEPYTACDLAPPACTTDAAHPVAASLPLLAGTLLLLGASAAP

Row | SMILES | EC50
1 | N#Cc1c(SCC(=O)Nc2nccs2)sc2c(O)cc(=O)[nH]c12 | > 100 µM (inactive)
2 | COc1cc(C(=O)NN=Cc2ccccn2)cc(OC)c1OC | 30.8 µM
3 | Cc1ccc(NC(=O)CCNS(=O)(=O)c2ccc3[nH]c(=O)oc3c2)cc1N(C)C | > 100 µM (inactive)
4 | O=C(CN1C(=O)/C(=C/c2ccco2)SC1=S)Nc1ccc(O)c(C(=O)O)c1 | > 100 µM (inactive)
5 | O=C(N/N=C/c1ccsc1)c1cc(O)c(O)c(O)c1 | > 100 µM (inactive)
6 | Cc1ccc(NC(=O)CCNS(=O)(=O)c2ccc3[nH]c(=O)oc3c2)c(C)c1 | > 100 µM (inactive)
7 | Cc1ccc(Cl)cc1NC(=O)CSc1sc2c(O)cc(=O)[nH]c2c1C#N | > 100 µM (inactive)
8 | O=C(CCCN1C(=O)/C(=C/c2ccco2)SC1=S)Nc1ccccc1 | > 100 µM (inactive)
9 | O=C(NN=Cc1cccnc1)c1cc(O)c(O)c(O)c1 | > 100 µM (inactive)
10 | COc1cc(C(=O)NNC(=O)c2n[nH]c3ccccc23)cc(OC)c1OC | 24 µM
11 | O=C(c1ccco1)N1CCN(S(=O)(=O)c2ccc3[nH]c(=O)oc3c2)CC1 | > 100 µM (inactive)
12 | COc1ccc(NC(=O)CSc2sc3c(O)cc(=O)[nH]c3c2C#N)c(OC)c1 | > 100 µM (inactive)
13 | COc1ccc(N2CCN(C(=O)CN3C(=O)/C(=C\c4ccco4)SC3=S)CC2)cc1 | > 100 µM (inactive)
14 | O=C(N/N=C/c1ccc(F)cc1)c1cc(O)c(O)c(O)c1 | > 100 µM (inactive)
15 | Cc1ccc(NC(=O)CSc2sc3c(O)cc(=O)[nH]c3c2C#N)c(F)c1 | > 100 µM (inactive)
16 | N#Cc1c(SCC(=O)Nc2nc3ccc(Br)cc3s2)sc2c(O)cc(=O)[nH]c12 | > 100 µM (inactive)
17 | O=C(CCNS(=O)(=O)c1ccc2[nH]c(=O)oc2c1)Nc1ccccc1 | > 100 µM (inactive)
18 | COc1ccc(OC)c(NC(=O)CSc2sc3c(O)cc(=O)[nH]c3c2C#N)c1 | > 100 µM (inactive)
19 | CN1CCC(=NNC(=O)c2cc(O)c(O)c(O)c2)CC1 | > 100 µM (inactive) and 64 µM
20 | O=C(CN1C(=O)/C(=C/c2ccco2)SC1=S)N[C@@H]1CSC[C@@H]1O | > 100 µM (inactive)
21 | CCOC(=O)N1CCC(NC(=O)CSc2sc3c(O)cc(=O)[nH]c3c2C#N)CC1 | > 100 µM (inactive)
22 | CC(C(=O)Nc1ccc(C(=O)O)c(O)c1)N1C(=O)/C(=C\c2ccco2)SC1=S (configuration not stated) | > 100 µM (inactive)
23 | CCOc1ccccc1CNC(=O)CCNS(=O)(=O)c1ccc2[nH]c(=O)oc2c1 | > 100 µM (inactive)

Row | SMILES | EC50
24 | O=C(CN1C(=O)/C(=C/c2ccco2)SC1=S)Nc1ccc2nccnc2c1 | > 100 µM (inactive)
25 | Cc1cc(=O)oc2cc(NC(=S)NCCC(c3ccccc3)c3ccccc3)ccc12 | > 100 µM (inactive)
26 | CCOC(=O)NC(=O)CSc1sc2c(O)cc(=O)[nH]c2c1C#N | > 100 µM (inactive)
27 | CN(C(=O)CN1C(=O)/C(=C\c2ccco2)SC1=S)C1CCS(=O)(=O)C1 (configuration not stated) | > 100 µM (inactive)
28 | Cc1csc(NC(=O)CSc2sc3c(O)cc(=O)[nH]c3c2C#N)n1 | > 100 µM (inactive)
29 | COc1cc([N+](=O)[O-])ccc1NC(=S)NCCC(c1ccccc1)c1ccccc1 | > 100 µM (inactive)
30 | CCOc1ccc2nc(NC(=O)CN(C)S(=O)(=O)c3ccc4[nH]c(=O)oc4c3)sc2c1 | > 100 µM (inactive)
31 | O=C(CN1C(=O)/C(=C\c2ccco2)SC1=S)Nc1ccc(O)cc1C(=O)O | > 100 µM (inactive)
32 | O=C(CN1C(=O)/C(=C\c2ccco2)SC1=S)Nc1ccc(C(=O)O)cc1 | > 100 µM (inactive)
33 | O=C(CN1C(=O)/C(=C/c2ccco2)SC1=S)NCCc1ccc(O)cc1 | > 100 µM (inactive)
34 | Cc1ccc(/C=C2\SC(=S)N(C3CCS(=O)(=O)C3)C2=O)o1 (configuration not stated) | > 100 µM (inactive)
35 | COc1cccc(NC(=O)CN(C)S(=O)(=O)c2ccc3[nH]c(=O)oc3c2)c1 | > 100 µM (inactive)
36 | S=C(NCCC(c1ccccc1)c1ccccc1)Nc1ccc(Cl)cc1Cl | 45.1 µM
37 | O=C(CCN1C(=O)/C(=C/c2ccco2)SC1=S)Nc1ccc(C(=O)O)c(O)c1 | > 100 µM (inactive)
38 | COc1cccc(CNC(=O)CCNS(=O)(=O)c2ccc3[nH]c(=O)oc3c2)c1 | > 100 µM (inactive)
39 | COc1ccccc1NC(=O)CCNS(=O)(=O)c1ccc2[nH]c(=O)oc2c1 | > 100 µM (inactive)
40 | CC(C)c1ccc(NC(=O)CCNS(=O)(=O)c2ccc3[nH]c(=O)oc3c2)cc1 | > 100 µM (inactive)
41 | O=C(NCCc1ccc(Cl)cc1)C1CCCN(S(=O)(=O)c2ccc3[nH]c(=O)oc3c2)C1 (configuration not stated) | > 100 µM (inactive)
42 | COc1cccc(/C=N/NC(=O)c2cc(O)c(O)c(O)c2)c1 | > 100 µM (inactive)
43 | COc1ccc(CNC(=O)CSc2sc3c(O)cc(=O)[nH]c3c2C#N)cc1 | > 100 µM (inactive)
44 | CCCSc1nnc(NC(=O)CSc2sc3c(O)cc(=O)[nH]c3c2C#N)s1 | > 100 µM (inactive)
45 | N#Cc1c(SCC(=O)NCc2ccc3c(c2)OCO3)sc2c(O)cc(=O)[nH]c12 | > 100 µM (inactive)
46 | N#Cc1c(SCC(=O)Nc2cccc(F)c2)sc2c(O)cc(=O)[nH]c12 | > 100 µM (inactive)

Row | SMILES | EC50
47 | O=C(CCNS(=O)(=O)c1ccc2[nH]c(=O)oc2c1)Nc1cccc(-c2ccno2)c1 | > 100 µM (inactive)
48 | COC(=O)c1ccc(C)c(NC(=O)CSc2sc3c(O)cc(=O)[nH]c3c2C#N)c1 | > 100 µM (inactive)
49 | O=C(C1CCN(S(=O)(=O)c2ccc3[nH]c(=O)oc3c2)CC1)N1CC=C(c2ccccc2)CC1 | > 100 µM (inactive)
50 | O=C(CN1C(=O)/C(=C/c2ccco2)SC1=S)Nc1cccc(C(=O)O)c1 | > 100 µM (inactive)
51 | CC(C(=O)NCCc1ccc(O)c(O)c1)N1C(=O)/C(=C\c2ccco2)SC1=S (configuration not stated) | > 100 µM (inactive)
52 | CCSc1nnc(NC(=O)CSc2sc3c(O)cc(=O)[nH]c3c2C#N)s1 | > 100 µM (inactive)
53 | CCOc1ccccc1NC(=O)CCNS(=O)(=O)c1ccc2[nH]c(=O)oc2c1 | > 100 µM (inactive)
54 | COc1ccc(NC(=O)C(CC(C)C)NS(=O)(=O)c2ccc3[nH]c(=O)oc3c2)cc1 (configuration not stated) | > 100 µM (inactive)
55 | O=C(O)CC(C(=O)O)N1C(=O)/C(=C/c2ccc(-c3nc4ccccc4s3)o2)SC1=S (configuration not stated) | > 100 µM (inactive)
56 | Cc1ccc(NC(=O)CCNS(=O)(=O)c2ccc3[nH]c(=O)oc3c2)cc1F | > 100 µM (inactive)
57 | CCOC(=O)N1CCN(S(=O)(=O)c2ccc3[nH]c(=O)oc3c2)CC1 | > 100 µM (inactive)
58 | O=C(N/N=C/C1CC2CCC1C2)c1cc(O)c(O)c(O)c1 (configuration not stated) | > 100 µM (inactive)
59 | O=C(NNC(=O)c1cc(O)c(O)c(O)c1)NC1CCCCC1 | > 100 µM (inactive)
60 | O=C(N/N=C/c1ccco1)c1cc(O)c(O)c(O)c1 | > 100 µM (inactive)
61 | COc1ccc(Cl)cc1NC(=O)CSc1sc2c(O)cc(=O)[nH]c2c1C#N | > 100 µM (inactive)
62 | N#Cc1cccc(NC(=O)CCNS(=O)(=O)c2ccc3[nH]c(=O)oc3c2)c1 | > 100 µM (inactive)
63 | Cc1ccc(C)c(NC(=O)CCNS(=O)(=O)c2ccc3[nH]c(=O)oc3c2)c1 | > 100 µM (inactive)
64 | CC(C)N1CCC(=NNC(=O)c2cc(O)c(O)c(O)c2)CC1 | > 100 µM (inactive) and 66.6 µM
65 | Cc1ccc(/C=N/NC(=O)c2cc(O)c(O)c(O)c2)cc1 | > 100 µM (inactive)
66 | COc1ccccc1CNC(=O)CCNS(=O)(=O)c1ccc2[nH]c(=O)oc2c1 | > 100 µM (inactive)
67 | N#Cc1cccc(NC(=O)CSc2sc3c(O)cc(=O)[nH]c3c2C#N)c1 | > 100 µM (inactive)
68 | CCc1nnc(NC(=O)CSc2sc3c(O)cc(=O)[nH]c3c2C#N)s1 | > 100 µM (inactive)
69 | COc1ccc(OC)c(NC(=O)CCNS(=O)(=O)c2ccc3[nH]c(=O)oc3c2)c1 | > 100 µM (inactive)

Row | SMILES | EC50
70 | N#Cc1c(SCC(=O)Nc2ccc(Cl)cc2Cl)sc2c(O)cc(=O)[nH]c12 | > 100 µM (inactive)
71 | Cc1cc(NC(=O)CSc2sc3c(O)cc(=O)[nH]c3c2C#N)ccc1Br | > 100 µM (inactive)
72 | O=C(CN1C(=O)/C(=C/c2ccco2)SC1=S)Nc1ccc(C(=O)O)cc1 | > 100 µM (inactive)
73 | O=C(CN1C(=O)/C(=C/c2ccco2)SC1=S)NC1CCS(=O)(=O)C1 (configuration not stated) | 30.6 µM
74 | CCN(C(=O)CN1C(=O)/C(=C\c2ccco2)SC1=S)C1CCS(=O)(=O)C1 (configuration not stated) | 42.6 µM
75 | CSc1cccc(NC(=O)CCNS(=O)(=O)c2ccc3[nH]c(=O)oc3c2)c1 | > 100 µM (inactive)
76 | O=C(CCN1C(=O)/C(=C\c2ccco2)SC1=S)Nc1ccc(C(=O)O)c(O)c1 | > 100 µM (inactive)
77 | N#Cc1c(SCC(=O)Nc2ccccc2C(F)(F)F)sc2c(O)cc(=O)[nH]c12 | > 100 µM (inactive)
78 | CCOc1cccc(NC(=O)CSc2sc3c(O)cc(=O)[nH]c3c2C#N)c1 | > 100 µM (inactive)
79 | CCc1ccc(NC(=O)CN(C)S(=O)(=O)c2ccc3[nH]c(=O)oc3c2)cc1 | > 100 µM (inactive)
80 | CC(C(=O)Nc1cccc(C(=O)O)c1)N1C(=O)/C(=C\c2ccco2)SC1=S (configuration not stated) | > 100 µM (inactive)
81 | O=[N+]([O-])c1ccc(NC(=S)NCCC(c2ccccc2)c2ccccc2)cc1 | > 100 µM (inactive)
82 | O=C(CCCN1C(=O)/C(=C\c2ccco2)SC1=S)Nc1ccc(O)cc1C(=O)O | > 100 µM (inactive)
83 | NS(=O)(=O)c1ccc(-c2ccc(/C=C3\SC(=S)N(C4CCS(=O)(=O)C4)C3=O)o2)cc1 (configuration not stated) | > 100 µM (inactive)
84 | CC(C)NC(=O)CSc1sc2c(O)cc(=O)[nH]c2c1C#N | > 100 µM (inactive)
85 | CC(C)C(C(=O)NC1CCS(=O)(=O)C1)N1C(=O)/C(=C\c2ccco2)SC1=S (configuration not stated) | > 100 µM (inactive)
86 | COc1cc(Cl)c(C)cc1NC(=O)CSc1sc2c(O)cc(=O)[nH]c2c1C#N | > 100 µM (inactive)
87 | C/C(=N\NC(=O)c1cc(O)c(O)c(O)c1)c1ccncc1 | > 100 µM (inactive)
88 | O=C1/C(=C/c2ccco2)SC(=S)N1C1CCS(=O)(=O)C1 (configuration not stated) | 42.6 µM
89 | COc1cc(C(=O)NNc2nc3cc4c(cc3s2)OCO4)cc(OC)c1OC | 13.5 µM
90 | COc1ccc(CNC(=O)CSc2sc3c(O)cc(=O)[nH]c3c2C#N)cc1OC | > 100 µM (inactive)
91 | CC(C(=O)Nc1ccc(C(=O)O)cc1)N1C(=O)/C(=C\c2ccco2)SC1=S (configuration not stated) | > 100 µM (inactive)
92 | COc1cc(C(=O)NNC(=S)NC(=O)c2ccccc2C)cc(OC)c1OC | 21.4 µM
